Measured values: patent US20050075375A1 (priority 2003, published 2005)
pEC50: −log10 of the molar value.

Test system: monocistronic NK5.1 HCV replicon in Huh7 cells
Assay: HCV replicon assay, monocistronic replicon cell line
Type: cell-based, hepatitis C virus
Conditions: Hepatitis C virus, Huh-7, 72 h; table T3 (compounds 471-640); monocistronic replicon in Huh7 cells, 3 days incubation, HCV RNA/GAPDH RNA by TaqMan RT-PCR; read-out: Mono EC50 Median
In short: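 Huh7 cells carrying the monocistronic NK5.1 replicon, seeded 24 h before dosing, were exposed to six-point half-log compound series (0.6% DMSO) for 3 days at 37 °C. Replicon RNA was quantified by TaqMan RT-PCR, normalised to GAPDH and compared with DMSO controls to derive EC50.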

| Compound | pEC50 |
| --- | --- |
| Fc1ccccc1-c1nc(-c2cnccc2C(F)(F)F)n[nH]1 [Compound 475, 3-[5-(2-Fluoro-phenyl)-1H-[1,2,4]triazol-3-yl]-4-trifluoromethyl-pyridine] | < 4.49 |
| FC(F)(F)c1ccncc1-c1n[nH]c(-c2ccccc2Cl)n1 [Compound 476, 3-[5-(2-Chloro-phenyl)-1H-[1,2,4]triazol-3-yl]-4-trifluoromethyl-pyridine] | < 4.49 |
| FC(F)(F)c1ccncc1-c1n[nH]c(-c2c(Cl)cccc2Cl)n1 [Compound 477, 3-[5-(2,6-Dichloro-phenyl)-1H-[1,2,4]triazol-3-yl]-4-trifluoromethyl-pyridine] | < 4.49 |
| Fc1cccc(F)c1-c1nc(-c2cnccc2C(F)(F)F)n[nH]1 [Compound 478, 3-[5-(2,6-Difluoro-phenyl)-1H-[1,2,4]triazol-3-yl]-4-trifluoromethyl-pyridine] | < 4.49 |
| Fc1cccc(Cl)c1-c1nc(-c2cnccc2C(F)(F)F)n[nH]1 [Compound 479, 3-[5-(2-Fluoro-6-chloro-phenyl)-1H-[1,2,4]triazol-3-yl]-4-trifluoromethyl-pyridine] | < 4.49 |
| O=[N+]([O-])c1cccc(-c2nc(-c3cnccc3C(F)(F)F)n[nH]2)c1 [Compound 480, 3-[5-(3-Nitro-phenyl)-1H-[1,2,4]triazol-3-yl]-4-trifluoromethyl-pyridine] | < 4.49 |
| COc1ccc(F)c(-c2nc(-c3cnccc3C(F)(F)F)n[nH]2)c1 [Compound 481, 3-[5-(2-Fluoro-5-methoxy-phenyl)-1H-[1,2,4]triazol-3-yl]-4-trifluoromethyl-pyridine] | < 4.49 |
| Oc1ccc2ccccc2c1-c1nc(-c2ccccn2)n[nH]1 [Compound 482, 1-(5-Pyridin-2-yl-2H-[1,2,4]triazol-3-yl)-naphthalen-2-ol] | < 4.72 |
| Brc1cccnc1-c1n[nH]c(-c2cccc3ccccc23)n1 [Compound 483, 3-Bromo-2-(5-naphthalen-1-yl-1H-[1,2,4]triazol-3-yl)-pyridine] | < 4.49 |
| CC(C)(C)c1ccc(O)c(-c2nc(-c3ncccc3Br)n[nH]2)c1 [Compound 484, 2-[5-(3-Bromo-pyridin-2-yl)-2H-[1,2,4]triazol-3-yl]-4-tert-butyl-phenol] | 5.14 |
| O=[N+]([O-])c1ccc(O)c(-c2nc(-c3ncccc3Br)n[nH]2)c1 [Compound 485, 2-[5-(3-Bromo-pyridin-2-yl)-2H-[1,2,4]triazol-3-yl]-4-Nitro-phenol] | < 4.72 |
| Oc1ccc(F)cc1-c1nc(-c2ncccc2Br)n[nH]1 [Compound 486, 2-[5-(3-Bromo-pyridin-2-yl)-2H-[1,2,4]triazol-3-yl]-4-Fluoro-phenol] | 5.13 |
| COc1ccc(O)c(-c2nc(-c3ncccc3Br)n[nH]2)c1 [Compound 487, 2-[5-(3-Bromo-pyridin-2-yl)-2H-[1,2,4]triazol-3-yl]-4-Methoxy-phenol] | < 4.49 |
| Oc1ccc(Cl)cc1-c1nc(-c2ncccc2Br)n[nH]1 [Compound 488, 2-[5-(3-Bromo-pyridin-2-yl)-2H-[1,2,4]triazol-3-yl]-4-Chloro-phenol] | 5.57 |
| CCOc1cccc(-c2nc(-c3ncccc3Br)n[nH]2)c1O [Compound 489, 2-[5-(3-Bromo-pyridin-2-yl)-2H-[1,2,4]triazol-3-yl]-6-Ethoxy-phenol] | 4.66 |
| Oc1cc(OCc2ccccc2)ccc1-c1nc(-c2ncccc2Br)n[nH]1 [Compound 490, 2-[5-(3-Bromo-pyridin-2-yl)-2H-[1,2,4]triazol-3-yl]-5-Benzyloxy-phenol] | 5.15 |
| Fc1cc(-c2nc(-c3ncccc3Br)n[nH]2)ccc1-c1ccccc1 [Compound 491, 3-Bromo-2-[5-(2-Fluoro-biphenyl-4-yl)-1H-[1,2,4]triazol-3-yl]-pyridine] | 5.64 |
| Oc1ccc(Br)cc1-c1nc(-c2ncccc2Br)n[nH]1 [Compound 492, 2-[5-(3-Bromo-pyridin-2-yl)-2H-[1,2,4]triazol-3-yl]-4-Bromo-phenol] | 5.27 |
| Cc1ccc(O)c(-c2nc(-c3ncccc3Br)n[nH]2)c1 [Compound 493, 2-[5-(3-Bromo-pyridin-2-yl)-2H-[1,2,4]triazol-3-yl]-4-Methyl-phenol] | 4.80 |
| COc1ccc(-c2nc(-c3ncccc3Br)n[nH]2)c(O)c1 [Compound 494, 2-[5-(3-Bromo-pyridin-2-yl)-2H-[1,2,4]triazol-3-yl]-5-Methoxy-phenol] | < 4.49 |
| Oc1ccccc1-c1nc(-c2ncccc2Br)n[nH]1 [Compound 495, 2-[5-(3-Bromo-pyridin-2-yl)-2H-[1,2,4]triazol-3-yl]-phenol] | 4.82 |
| COc1cccc(-c2nc(-c3ncccc3Br)n[nH]2)c1O [Compound 496, 2-[5-(3-Bromo-pyridin-2-yl)-2H-[1,2,4]triazol-3-yl]-6-Methoxy-phenol] | < 4.49 |

| Compound | pEC50 |
| --- | --- |
| O=[N+]([O-])c1cccc(-c2nc(-c3ncccc3Br)n[nH]2)c1 [Compound 497, 3-Bromo-2-[5-(3-nitro-phenyl)-1H-[1,2,4]triazol-3-yl]-pyridine] | < 4.49 |
| CCN(CC)c1ccc(-c2nc(-c3ncccc3Br)n[nH]2)c(O)c1 [Compound 498, 2-[5-(3-Bromo-pyridin-2-yl)-2H-[1,2,4]triazol-3-yl]-5-Diethylamino-phenol] | 5.24 |
| Oc1ccc(O)c(-c2nc(-c3ncccc3Br)n[nH]2)c1 [Compound 499, 2-[5-(3-Bromo-pyridin-2-yl)-2H-[1,2,4]triazol-3-yl]-4-Hydroxy-phenol] | 5.21 |
| COc1cccc(-c2nc(-c3ncccc3Br)n[nH]2)c1 [Compound 500, 3-Bromo 2-[5-(3-Methoxy-phenyl)-1H-[1,2,4]triazol-3-yl]-pyridine] | < 4.49 |
| COc1ccc(F)c(-c2nc(-c3ncccc3Br)n[nH]2)c1 [Compound 501, 3-Bromo-2-[5-(2-Fluoro-5-methoxy-phenyl)-1H-[1,2,4]triazol-3-yl]-pyridine] | < 4.49 |
| CC(C)c1ccc(-c2nc(-c3ncccc3Br)n[nH]2)cc1 [Compound 502, 3-Bromo-2-[5-(4-isopropyl-phenyl)-1H-[1,2,4]triazol-3-yl]-pyridine] | 4.92 |
| Oc1ccc2ccccc2c1-c1nc(-c2ncccc2Br)n[nH]1 [Compound 503, 1-(5-(3-Bromo-pyridin-2-yl)-2H-[1,2,4]triazol-3-yl)-naphthalen-2-ol] | 5.16 |
| Cc1cccnc1-c1n[nH]c(-c2ccccc2Br)n1 [Compound 504, 2-[5-(2-Bromo-phenyl)-1H-[1,2,4]triazol-3-yl]-3-mehtyl-pyridine] | 5.14 |
| Cc1cccnc1-c1n[nH]c(-c2cccc(Br)c2)n1 [Compound 505, 2-[5-(3-Bromo-phenyl)-1H-[1,2,4]triazol-3-yl]-3-methyl-pyridine] | 5.40 |
| FC(F)(F)c1ccc(-c2n[nH]c(-c3cccc4ccccc34)n2)nc1 [Compound 506, 2-(5-Naphthalen-1-yl-1H-[1,2,4]triazol-3-yl)-5-trifluoromethyl-pyridine] | < 4.72 |
| CC(C)(C)c1ccc(O)c(-c2nc(-c3ccc(C(F)(F)F)cn3)n[nH]2)c1 [Compound 507, 4-tert-Butyl-2-[5-(5-trifluoromethyl-pyridin-2-yl)-2H-[1,2,4]triazol-3-yl]-phenol] | < 4.72 |
| O=[N+]([O-])c1ccc(O)c(-c2nc(-c3ccc(C(F)(F)F)cn3)n[nH]2)c1 [Compound 508, 4-Nitro-2-[5-(5-trifluoromethyl-pyridin-2-yl)-2H-[1,2,4]triazol-3-yl]-phenol] | < 4.72 |
| Oc1ccc(F)cc1-c1nc(-c2ccc(C(F)(F)F)cn2)n[nH]1 [Compound 509, 4-Fluoro-2-[5-(5-trifluoromethyl-pyridin-2-yl)-2H-[1,2,4]triazol-3-yl]-phenol] | < 4.72 |
| COc1ccc(O)c(-c2nc(-c3ccc(C(F)(F)F)cn3)n[nH]2)c1 [Compound 510, 4-Methoxy-2-[5-(5-trifluoromethyl-pyridin-2-yl)-2H-[1,2,4]triazol-3-yl]-phenol] | < 4.72 |
| Oc1ccc(Cl)cc1-c1nc(-c2ccc(C(F)(F)F)cn2)n[nH]1 [Compound 511, 4-Chloro-2-[5-(5-trifluoromethyl-pyridin-2-yl)-2H-[1,2,4]triazol-3-yl]-phenol] | < 4.72 |
| CCOc1cccc(-c2nc(-c3ccc(C(F)(F)F)cn3)n[nH]2)c1O [Compound 512, 6-Ethoxy-2-[5-(5-trifluoromethyl-pyridin-2-yl)-2H-[1,2,4]triazol-3-yl]-phenol] | < 4.72 |
| Oc1cc(OCc2ccccc2)ccc1-c1nc(-c2ccc(C(F)(F)F)cn2)n[nH]1 [Compound 513, 5-Benzyloxy-2-[5-(5-trifluoromethyl-pyridin-2-yl)-2H-[1,2,4]triazol-3-yl]-phenol] | < 4.72 |
| Fc1cc(-c2nc(-c3ccc(C(F)(F)F)cn3)n[nH]2)ccc1-c1ccccc1 [Compound 514, 2-[5-(2-Fluoro-biphenyl-4-yl)-1H-[1,2,4]triazol-3-yl]-5-trifluoromethyl-pyridine] | < 4.72 |
| Oc1ccc(Br)cc1-c1nc(-c2ccc(C(F)(F)F)cn2)n[nH]1 [Compound 515, 4-Bromo-2-[5-(5-trifluoromethyl-pyridin-2-yl)-2H-[1,2,4]triazol-3-yl]-phenol] | < 4.72 |
| Cc1ccc(O)c(-c2nc(-c3ccc(C(F)(F)F)cn3)n[nH]2)c1 [Compound 516, 4-Methyl-2-[5-(5-trifluoromethyl-pyridin-2-yl)-2H-[1,2,4]triazol-3-yl]-phenol] | < 4.72 |
| COc1ccc(-c2nc(-c3ccc(C(F)(F)F)cn3)n[nH]2)c(O)c1 [Compound 517, 5-Methoxy-2-[5-(5-trifluoromethyl-pyridin-2-yl)-2H-[1,2,4]triazol-3-yl]-phenol] | < 4.72 |
| Oc1ccccc1-c1nc(-c2ccc(C(F)(F)F)cn2)n[nH]1 [Compound 518, 2-[5-(5-trifluoromethyl-pyridin-2-yl)-2H-[1,2,4]triazol-3-yl]-phenol] | < 4.72 |
